# According to patent US4610994A, “1,2,3-triazole anticonvulsant drugs” (priority 1984, dated 1986):
# Where “and” joins values, the source holds several entries; their conditions need not be identical. Equal entries are not always repeated. Entries after “also recorded” stand apart in the source; their conditions may differ. Where two headings read alike, the source gives them in different places.
# What was measured:
# [1] = test system: p-nitroanisole O-demethylase; assay: effect of chronic administration on liver p-nitroanisole O-demethylase; format: in vivo, rats
# Description: (§1) Phase VII studies of Compound 10 included five-day LD3, five-day tolerance studies, and effect of chronic administration on the liver microsomal enzyme system. The five-day oral LD3 of Compound 10 is <300 mg/kg in male rats and >300 mg/kg in female rats.
# (§2) Thus, the estimated five-day LD3 for Compound 10 is <300 mg/kg in male rats and >300 but <1000 mg/kg in female rats.
# [2] = oral absorption in mice from oral/i.p. ratios; format: in vivo
# Excerpt: The extent of oral absorption can be determined from the ratio of the oral ED50/i.p. […] The oral TD50/i.p. TD50 and oral ED50/i.p.
# hexobarbital sleep time = hexobarbital sleep time after chronic administration in rats; format: in vivo
# Description: as §1
# [3] = test system: subcutaneous Bicuculline seizures; assay: subcutaneous Bicuculline Seizure Threshold Test (sc Bic) in mice; format: in vivo, mice (male albino, CF No. 1); settings: mice i.p.; Compound 10 up to 300 mg/kg
# Description: (§3) All animals were allowed free access to both food (S/L Custom Lab Diet-7) and water, except when they were removed from their cages for the experimental procedure.
# (§4) The drugs were administered either orally or intraperitoneally in a volume of 0.01 ml/g body weight in mice and 0.04 ml/10 g in rats. All tests were conducted at the previously determined time of peak drug effect.
# (§5) The profile of anticonvulsant activity for each substance was established by five tests: one electrical and four chemical. The electrical test employed was the maximal electroshock seizure pattern test. […] Except for the sc Strych Test, these tests measure the ability of anticonvulsants to afford complete protection against threshold seizures induced by the subcutaneous injection of the CD97 of the convulsant agent.
# (§6) All convulsants were administered subcutaneously into a loose fold of skin on the back of the neck in a volume of 0.01 ml/g body weight in mice; Metrazol was injected in a volume of 0.02 ml/10 g body weight in rats. The convulsant drugs were administered at the previously determined time of peak anticonvulsant action of the drug under study. […] Except for strychnine, absence of a five-second episode of clonic spasms (threshold seizure) was taken as protection. In the case of strychnine, complete abolition of the hindleg tonic extension was taken as protection.
# [4] = test system: maximal electro-shock seizure (MES) and subcutaneous pentylenetetrazole (Metrazole) seizure threshold (scMet); assay: Phase I anticonvulsant screening (MES test and scMet test); format: in vivo, mouse; settings: at effective dose levels (Class I) or 300 mg/kg (8, 13)
# in vivo [5] = settings: mouse, ip
# [6] = test system: subcutaneous Picrotoxin seizures; assay: subcutaneous Picrotoxin Seizure Threshold Test (sc Pic) in mice; format: in vivo, mice (male albino, CF No. 1); settings: mice i.p.; Compound 10 up to 300 mg/kg
# Description: as §3, §4, §5, §6
# [7] = minimal neurotoxicity (ataxia, loss of placing response and muscle tone) in rats; settings: for TD3: oral
# Description: as §3, §4
# (§7) The profile of toxicity for each test drug was established by the following procedures: Firstly, the minimal neurotoxic dose (TD50) was determined by the rotorod procedure at the time of peak neurotoxic effect. When a normal mouse is placed on a knurled rod one inch in diameter rotating at a speed of six rpm it can maintain its equilibrium for long periods of time. Neurological deficit is indicated by inability of the mouse to maintain its equilibrium for one minute in each of three trials on this rotating rod. Neurological deficit in rats is indicated by ataxia, loss of placing response and muscle tone.
# in vivo [8] = settings: mouse, po
# Description: as §3, §4, §5
# [9] = test system: subcutaneous Metrazol seizures; assay: subcutaneous Metrazol Seizure Threshold Test (sc Met) in mice; settings: for ED97: sc Met
# Description: as §3, §4, §5, §6
# [10] = five-day oral LD3 in rats; format: in vivo
# Description: as §1, §2
# [11] = maximal electroshock seizure (MES) pattern test in rats; settings: rat, in vivo, po, Safety ratio (TD3/ED97), rats, MES
# Description: as §3, §4, §5
# [12] = test system: maximal electroshock seizures; assay: as above
# Description: as §3, §4, §5
# in vivo [13] = settings: mouse
# Description: as §3, §4, §7
# cytochrome C reductase = assay: effect of chronic administration on liver cytochrome C reductase; format: in vivo, rats
# Description: as §1, §2
# [14] = 24-hour lethality (LD50) in mice i.p.
# [15] = test system: subcutaneous Metrazol seizures; assay: subcutaneous Metrazol Seizure Threshold Test (sc Met) in rats
# Description: as §3, §4, §5, §6
# [16] = test system: maximal electroshock seizures; assay: five-day tolerance study in rats (MES test); format: in vivo
# Description: as §1, §2
# [17] = Phase III toxicity profile (overt signs and symptoms) in mice i.p.
# Description: (§8) The profile of toxicity for each test drug was established by the following procedures: Firstly, the minimal neurotoxic dose (TD50) was determined by the rotorod procedure at the time of peak neurotoxic effect. When a normal mouse is placed on a knurled rod one inch in diameter rotating at a speed of six rpm it can maintain its equilibrium for long periods of time. Neurological deficit is indicated by inability of the mouse to maintain its equilibrium for one minute in each of three trials on this rotating rod. […] The HD50 represents the median dose at which 50% of animals lose their righting reflex.
# [18] = test system: maximal electroshock seizures; assay: maximal electroshock seizure (MES) pattern test in mice; settings: for ED97 / Safety ratio (TD3/ED97): MES
# Description: as §3, §4, §5
# in vivo [19] = settings: mouse; remark: listed apart in the source
# Description: as §3, §4, §5, §6
# [20] = loss of righting reflex (HD50) in mice i.p.; design: species or system mice (male albino, CF No. 1); settings: mouse, in vivo, ip
# Description: as §8
# cytochrome P-450 = assay: effect of chronic administration on liver microsomal cytochrome P-450; format: in vivo, rats
# Description: as §1, §2
# [21] = test system: subcutaneous Strychnine seizures; format: in vivo, mice (male albino, CF No. 1); settings: mice i.p.; Compound 10 up to 300 mg/kg
# Description: as §3, §4, §5, §6
# [22] = rats, acute (single dose) control group
# [23] = mice, i.p., 95% confidence interval
# 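Wherever Rotorod TD50 is given: mice on rotorod: neurological deficit scored when the animal cannot keep balance for 1 min in every one of three trials on a 1-inch knurled rod turning at 6 rpm.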
# 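Wherever Rotorod toxicity is given: mice on rotorod: neurological deficit scored when the animal cannot keep balance for 1 min in every one of three trials on a 1-inch knurled rod turning at 6 rpm.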
# 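Wherever TPE by the rotorod test is given: mice on rotorod: neurological deficit scored when the animal cannot keep balance for 1 min in every one of three trials on a 1-inch knurled rod turning at 6 rpm.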
# 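Wherever time of peak effect (TPE), rotorod toxicity test is given: mice on rotorod: neurological deficit scored when the animal cannot keep balance for 1 min in every one of three trials on a 1-inch knurled rod turning at 6 rpm.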
compound,measurement,setting,value
"Clc1ccc(-n2nncc2-c2cccnc2)cc1 [Compound 10, 1-(para-chlorophenyl)-5-(3-pyridyl)-1H-1,2,3-triazole]",p-nitroanisole O-demethylase,[1]; chronically treated rats,0.640±0.098 n moles/mg/min
same,p-nitroanisole O-demethylase,[1]; [22],0.261±0.035 n moles/mg/min
same,increase in p-nitroanisole O-demethylase,"[1]; rats, chronic vs acute",145%
same,oral absorption,[2],adequately absorbed in mice after oral administration
same,hexobarbital sleep time,hexobarbital sleep time; acute (single dose) control group,16.3 ± 1.2 min
same,hexobarbital sleep time,hexobarbital sleep time; chronic-treated group,15.0 ± 2.0 min
same,effectiveness by the sc Bic test,[3],ineffectiveness; also recorded: ineffective in doses up to 300 mg/kg
same,signs of neurological deficit,[4],do not exhibit significant signs of neurological deficit
same,LD50 at 24 h,in vivo [5],569 mg/kg
same,effectiveness by the sc Pic test,[6],ineffectiveness; also recorded: ineffective in doses up to 300 mg/kg
same,neurotoxicity in rats relative to mice,[7]; oral administration,approximately 16 times
same,TD50,"[7]; rat, in vivo, po",44.5 mg/kg
same,TD3,"[7]; rats, MES",16
same,TD3,"[7]; rats, sc Met",16
same,TPE by the toxicity test,"[7]; rats, p.o.",two
same,TD50,"[7]; rats, p.o., 95% confidence interval",44.48 (32.78-62.61) mg/kg
same,selectivity ratio,in vivo [8],5.54
same,"oral ED50/i.p. ED50 ratio, sc Met",[9]; mice,5.03
same,"toxicity of doses giving 97% protection, sc Met test","[9]; mice, i.p.",toxic doses are required
same,ED97,"[9]; mice, i.p.",900
same,sc Met ED50,[9]; [23],26.95 mg/kg and 26.95(9.89-55.08) mg/kg
same,ED97,"[9]; mice, oral",980
same,sc Met ED50,"[9]; mice, p.o.",135.67 mg/kg
same,potency by the sc Met test in mice relative to rats,[9]; oral administration,about 21/2
same,five-day oral LD3,[10]; male rats,< 300 mg/kg
same,five-day oral LD3,"[10]; rat, in vivo, po, 7200 min",> 300 mg/kg
same,"toxicity, male vs female rats","[10]; rats, chronic",more toxic in male than in female rats
same,selectivity ratio,[11],0.07
same,ED97,"[12]; Rattus norvegicus, po",215 mg/kg
same,ED50,"[12]; Rattus norvegicus, po, read-out: MES ED50",49.9 mg/kg
same,97% protection by the MES and sc Met tests in nontoxic doses,"[12]; rats, oral",do not provide 97% protection
same,TPE by the MES and sc Met tests,"[12]; rats, p.o.",four
same,TD50,in vivo [13]; ip,245 mg/kg
same,TD50,in vivo [13]; po,729 mg/kg
same,cytochrome C reductase,cytochrome C reductase; chronically treated rats,219±24 n moles/mg/min
same,cytochrome C reductase,cytochrome C reductase; [22],157±11 n moles/mg/min
same,increase in cytochrome C reductase,"cytochrome C reductase; rats, chronic vs acute",40%
same,LD50/HD50 ratio,[14],1.08
same,LD50/TD50 ratio,[14],2.33
same,toxicity,"300 mg/kg, four hours after administration",one of two animals
same,Rotorod toxicity,"300 mg/kg, thirty minutes after administration",all four animals
same,"time of peak effect (TPE), rotorod toxicity test","mice, i.p.",60 min
same,TD3,"mice, i.p., MES",175
same,TD3,"mice, i.p., sc Met",175
same,Rotorod TD50,[23],244.51(221.82-275.17) mg/kg and 244.51(222.82-275.17) mg/kg
same,TD3,"mice, oral, MES",173
same,TD3,"mice, oral, sc Met",173
same,TPE by the rotorod test,"mice, p.o.",six
same,TD50,"mice, p.o., 95% confidence interval",729.08 (492.47-1009.17) mg/kg
same,ED97,"[15]; oral, sc Met",> 10000
same,Safety ratio (TD3/ED97),"[15]; oral, sc Met",0.002
same,sc Met ED50,[15]; p.o.,329.18 mg/kg
same,"MES test, animals protected","[16]; acute (single dose, 50 mg/kg) control group, 50 mg/kg",6 of 8 protected and 6 of 8 rats protected
same,"MES test, animals protected","[16]; chronic-treated group, five daily doses of 50 mg/kg",1 of 8 protected
same,tolerance to the anticonvulsant effects,[16]; five days,significant tolerance occurs within this period of time
same,"Profile of acute toxicity, 1 x TD50",[17]; 1TD50,"decreased motor activity, rotorod toxicity, ataxia, and decreased respiration; also recorded: normal after 24 hours; also recorded: normal at 24 hrs"
same,"Profile of acute toxicity, 2 x TD50",[17]; 2TD50,"cyanosis, muscle relaxation, and loss of righting reflex; also recorded: dead after 24 hours"
same,"Profile of acute toxicity, 4 x TD50",[17]; 4TD50,"displayed all the symptoms characteristic of those given 1TD50 and 2TD50's of the test drug; however, the symptoms were more intense; also recorded: dead 4 hours after drug administration and the other was dead at 24 hours"
same,"oral ED50/i.p. ED50 ratio, MES",[18]; mice,2.00
same,"toxicity of doses giving 97% protection, MES or sc Met test","[18]; mice and rats, oral",toxic doses are required to protect 97% of animals
same,"time of peak effect (TPE), anticonvulsant tests","[18]; mice i.p., anticonvulsant tests (MES, sc Met)",30 min
same,mice protected in the MES test at nontoxic doses,"[18]; mice, i.p.",97%
same,protective index (TD50/ED50) by the MES test,"[18]; mice, i.p.",3.72
same,ED97,"[18]; mice, i.p.",145
same,Safety ratio (TD3/ED97),"[18]; mice, i.p.",1.2
same,MES ED50,[18]; [23],65.76 mg/kg and 65.76(51.82-83.19) mg/kg
same,ED97,"[18]; mice, oral",275
same,Safety ratio (TD3/ED97),"[18]; mice, oral",0.6
same,MES ED50,"[18]; mice, p.o.",131.67 mg/kg
same,"potency relative to phenobarbital, MES test","[18]; mice, p.o.",1/6
same,"potency relative to phenytoin, MES test","[18]; mice, p.o.",1/15
same,selectivity ratio,in vivo [19]; ip,9.07
same,selectivity ratio,in vivo [19]; po,5.37
same,HD50 (righting reflex),[20],525.98(473.77-564.48) mg/kg
same,"time of peak toxicity (TPE), righting reflex",[20],6 h
same,TD50,[20]; HD50 (righting reflex),526 mg/kg
same,cytochrome P-450,cytochrome P-450; chronically treated rats,0.988±0.096 n moles/mg
same,cytochrome P-450,cytochrome P-450; [22],0.720±0.054 n moles/mg
same,increase in liver cytochrome P-450,"cytochrome P-450; rats, chronic vs acute",37%
same,effectiveness by the sc Strych test,[21],ineffectiveness; also recorded: ineffective in doses up to 300 mg/kg
